Experimental data taken from US11179394B2, “Method for treating cancer using a combination of Chk1 and ATR inhibitors” (priority 2014, dated 2021).

Key:
U2OS cells = experiment: Cleaved caspase-3 (apoptosis) with hydroxyurea; assay type: cell-based; conditions: 24 hr, hydroxyurea (2 mM) alone
Method: Referring to FIG. 5, the impact of Chk1 inhibition by AZD7762 on cell apoptosis from treatment with the ATR inhibitor VE-821 and a representative DNA damaging agent, hydroxyl urea (2 mM), was assessed by measuring levels of cleaved caspase-3, a widely used marker of apoptosis. U2OS cells were treated for 24 hr. with the DNA damaging agent hydroxyurea and varied doses of AZD7762 and/or VE-821. Cells were subsequently stained with anti-cleavage caspase 3 and β actin antibodies and confocal microscopy used to take and quantify images. Data are presented as % cells positive for cleaved capsae-3.

[1] = test system: BJ-SV40T cells (p53 and RB inactivated); experiment: Cell viability by resazurin staining; conditions: 72 hours, VE-821 up to 5 μM, AZD7762 30 nM
Method: (§2) In addition, the impact of expression of the H-RAS oncogene was assessed in the BJ-SV40T cells transformed with activated H-RAS(G12V) (BJ RAS).

[2] = test system: cMYC transformed cells, HA1EB-GFP-cMYC; experiment: Cell viability by resazurin staining; conditions: 72 hours, VE-821 up to 5 μM, AZD7762 30 nM
[3] = test system: BJ RAS cells (BJ-SV40T transformed with activated H-RAS(G12V)); experiment: Cell viability by resazurin staining; conditions: 72 hours, VE-821 up to 5 μM, AZD7762 30 nM
Method: as §2

BJ-hTERT parental cells = experiment: Cell viability by resazurin staining; assay type: cell-based; conditions: 72 hours, AZD7762 30 nM
Method: Referring to FIG. 2D, an isogenic cell pair was used to assess the impact of loss of p53 and RB on cell sensitivity to the combination of VE-821 and AZD7762 (BJ-hTERT parental cells vs BJ-SV40T cells expressing the Large Tumor Antigen which inactivates p53 and RB function). In addition, the impact of expression of the H-RAS oncogene was assessed in the BJ-SV40T cells transformed with activated H-RAS(G12V) (BJ RAS). Cells were treated with either VE-821 alone (at concentrations up to 5 μM), AZD7762 alone (30 nM) or the combination of VE-821 and AZD7762 for 72 hours.

[4] = test system: MX-1 breast cancer cell line; conditions: AZD7762 25 mg/kg intraperitoneal, VE-822 60 mg/kg oral gavage; for survival: combination P<0.05
Method: (§3) In the case of the MX-1 model, 2 million cells in 50% matrigel were injected in nude mice and for the H460 model 5 million cells in PBS were injected in nude mice. After 8-9 days of implantation animals were divided into 4 groups of 5 animals based on tumor size; with mean tumor volume of 130 mm^3. […] Body weight and tumor volume were measured twice a week. Tumor volume was measured with caliper and shown as mean±S.E.M (length×width×width×0.52).

[5] = test system: H460 lung cancer cell line; conditions: AZD7762 25 mg/kg intraperitoneal, VE-822 60 mg/kg oral gavage; for survival: combination vs monotherapy P<0.01; for tumor size / tumor growth: combination vs monotherapy P<0.05
Method: as §3

HA1EB-GFP parental cells = experiment: Cell viability by resazurin staining; assay type: cell-based; conditions: 72 hours, VE-821 up to 5 μM, AZD7762 30 nM
Parental DLD-1 cells = experiment: cells; assay type: cell-based; conditions: Homo sapiens, DLD-1, read-out: cell viability
Method: (§1) 500 cells of U2OS, MCF-7, DLD-1, DLD-1 Chk-1^S317A/-, DLD-1 Chk-1^+/−, DLD-1 ATR^S/S and 1000 cells of VH-10 were plated on 10 cm plate. After 5 hr. of incubation (5% CO2 at 37° C.) vehicle (0.05% DMSO max) various concentration of ATR inhibitor VE-821 were directly added to the media containing plate and incubated for 72 hr. At the end of 72 hr. of incubation, vehicle and drug containing media was replaced with fresh media and further incubated for another 5-8 days before plates were fixed and stained with 4% methylene blue in MeOH and colonies were counted manually. Each data point represents a triplicate data set±SEM.

[6] = test system: DLD-1 cells expressing the inactive mutant form of Chk1 (S317A/-); experiment: Clonogenic survival assay; assay type: cell-based; conditions: Homo sapiens; DLD-1 Chk1 S317A/-; 1 μM VE-821; read-out: viable cells remaining
Method: as §1

MCF-7 cancer cells = experiment: Clonogenic survival assay; assay type: cell-based; conditions: 1 μM VE-821, 72 hr, AZD7762 20 nM where combined
Method: as §1

U2OS cancer cells = experiment: Clonogenic survival assay; assay type: cell-based; conditions: 1 μM VE-821, 72 hr, AZD7762 20 nM where combined
Method: as §1

ATR = ATR (Homo sapiens, UniProt Q13535); conditions: 1 μM VE-821; cited from earlier work
Chain of ATR (Q13535 whole entry): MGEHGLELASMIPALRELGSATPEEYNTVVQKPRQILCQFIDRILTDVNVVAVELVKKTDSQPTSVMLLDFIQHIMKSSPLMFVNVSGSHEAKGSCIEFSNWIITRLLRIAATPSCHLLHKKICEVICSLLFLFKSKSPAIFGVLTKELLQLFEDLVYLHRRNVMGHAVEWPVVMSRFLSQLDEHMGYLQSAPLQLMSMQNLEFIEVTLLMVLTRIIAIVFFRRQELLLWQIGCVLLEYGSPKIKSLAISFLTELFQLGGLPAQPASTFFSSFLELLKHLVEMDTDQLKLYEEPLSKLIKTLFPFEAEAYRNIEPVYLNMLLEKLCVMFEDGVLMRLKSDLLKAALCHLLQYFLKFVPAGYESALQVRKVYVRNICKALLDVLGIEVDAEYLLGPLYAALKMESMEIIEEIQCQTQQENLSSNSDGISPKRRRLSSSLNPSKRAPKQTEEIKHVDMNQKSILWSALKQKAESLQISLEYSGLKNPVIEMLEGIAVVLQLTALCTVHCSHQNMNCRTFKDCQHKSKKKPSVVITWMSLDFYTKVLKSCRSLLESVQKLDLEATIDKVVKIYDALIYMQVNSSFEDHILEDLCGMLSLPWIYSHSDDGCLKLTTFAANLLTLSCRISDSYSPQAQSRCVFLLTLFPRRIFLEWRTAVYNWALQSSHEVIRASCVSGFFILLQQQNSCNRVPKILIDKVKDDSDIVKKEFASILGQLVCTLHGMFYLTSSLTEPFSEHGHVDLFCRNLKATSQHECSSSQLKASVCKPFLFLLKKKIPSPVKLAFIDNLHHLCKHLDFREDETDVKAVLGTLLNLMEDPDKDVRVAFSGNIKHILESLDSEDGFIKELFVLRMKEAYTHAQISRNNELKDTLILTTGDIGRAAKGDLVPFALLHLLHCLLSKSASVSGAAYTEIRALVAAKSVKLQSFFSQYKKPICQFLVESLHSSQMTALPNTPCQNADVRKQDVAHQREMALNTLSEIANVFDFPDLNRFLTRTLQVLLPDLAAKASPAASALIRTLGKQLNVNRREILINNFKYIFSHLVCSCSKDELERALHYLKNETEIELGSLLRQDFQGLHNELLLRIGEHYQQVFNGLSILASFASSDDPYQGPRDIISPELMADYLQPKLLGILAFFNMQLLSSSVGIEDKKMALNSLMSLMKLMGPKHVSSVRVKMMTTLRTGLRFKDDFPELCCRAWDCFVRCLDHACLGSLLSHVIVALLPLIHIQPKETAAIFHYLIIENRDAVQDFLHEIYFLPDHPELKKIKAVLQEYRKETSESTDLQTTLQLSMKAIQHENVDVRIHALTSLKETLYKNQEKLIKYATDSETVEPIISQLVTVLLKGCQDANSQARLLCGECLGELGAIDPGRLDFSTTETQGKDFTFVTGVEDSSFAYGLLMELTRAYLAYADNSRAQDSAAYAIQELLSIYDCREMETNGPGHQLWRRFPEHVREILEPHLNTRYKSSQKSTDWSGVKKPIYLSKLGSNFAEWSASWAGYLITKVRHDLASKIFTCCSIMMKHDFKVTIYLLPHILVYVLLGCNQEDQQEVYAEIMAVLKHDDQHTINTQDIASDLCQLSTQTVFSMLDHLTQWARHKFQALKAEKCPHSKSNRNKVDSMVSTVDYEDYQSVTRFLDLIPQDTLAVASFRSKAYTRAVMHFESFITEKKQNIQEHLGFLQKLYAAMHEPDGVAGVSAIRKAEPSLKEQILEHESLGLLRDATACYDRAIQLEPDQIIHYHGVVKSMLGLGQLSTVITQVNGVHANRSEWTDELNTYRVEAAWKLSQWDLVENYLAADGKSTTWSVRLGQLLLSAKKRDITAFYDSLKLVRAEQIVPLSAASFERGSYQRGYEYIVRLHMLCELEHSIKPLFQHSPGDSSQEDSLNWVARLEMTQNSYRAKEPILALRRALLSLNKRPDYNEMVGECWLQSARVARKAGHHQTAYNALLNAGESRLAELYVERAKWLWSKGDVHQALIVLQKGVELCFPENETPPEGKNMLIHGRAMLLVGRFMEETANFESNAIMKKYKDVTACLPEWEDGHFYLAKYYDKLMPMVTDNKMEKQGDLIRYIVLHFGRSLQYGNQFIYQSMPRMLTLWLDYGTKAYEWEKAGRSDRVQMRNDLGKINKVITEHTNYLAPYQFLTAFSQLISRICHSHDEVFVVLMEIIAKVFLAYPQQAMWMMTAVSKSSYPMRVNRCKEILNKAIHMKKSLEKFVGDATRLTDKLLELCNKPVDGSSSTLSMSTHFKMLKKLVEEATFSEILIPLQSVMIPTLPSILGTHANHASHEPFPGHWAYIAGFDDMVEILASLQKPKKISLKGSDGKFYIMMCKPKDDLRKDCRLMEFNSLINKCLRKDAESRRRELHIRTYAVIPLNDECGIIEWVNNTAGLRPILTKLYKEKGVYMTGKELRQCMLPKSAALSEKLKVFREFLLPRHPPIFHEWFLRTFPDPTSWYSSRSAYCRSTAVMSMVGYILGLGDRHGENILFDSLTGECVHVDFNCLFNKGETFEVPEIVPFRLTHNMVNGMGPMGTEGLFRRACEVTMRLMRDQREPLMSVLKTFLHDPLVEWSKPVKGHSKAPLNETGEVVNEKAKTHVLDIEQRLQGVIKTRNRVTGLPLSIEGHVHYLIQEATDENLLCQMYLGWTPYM
Chain of ATR (Q8WXE1 whole entry partner): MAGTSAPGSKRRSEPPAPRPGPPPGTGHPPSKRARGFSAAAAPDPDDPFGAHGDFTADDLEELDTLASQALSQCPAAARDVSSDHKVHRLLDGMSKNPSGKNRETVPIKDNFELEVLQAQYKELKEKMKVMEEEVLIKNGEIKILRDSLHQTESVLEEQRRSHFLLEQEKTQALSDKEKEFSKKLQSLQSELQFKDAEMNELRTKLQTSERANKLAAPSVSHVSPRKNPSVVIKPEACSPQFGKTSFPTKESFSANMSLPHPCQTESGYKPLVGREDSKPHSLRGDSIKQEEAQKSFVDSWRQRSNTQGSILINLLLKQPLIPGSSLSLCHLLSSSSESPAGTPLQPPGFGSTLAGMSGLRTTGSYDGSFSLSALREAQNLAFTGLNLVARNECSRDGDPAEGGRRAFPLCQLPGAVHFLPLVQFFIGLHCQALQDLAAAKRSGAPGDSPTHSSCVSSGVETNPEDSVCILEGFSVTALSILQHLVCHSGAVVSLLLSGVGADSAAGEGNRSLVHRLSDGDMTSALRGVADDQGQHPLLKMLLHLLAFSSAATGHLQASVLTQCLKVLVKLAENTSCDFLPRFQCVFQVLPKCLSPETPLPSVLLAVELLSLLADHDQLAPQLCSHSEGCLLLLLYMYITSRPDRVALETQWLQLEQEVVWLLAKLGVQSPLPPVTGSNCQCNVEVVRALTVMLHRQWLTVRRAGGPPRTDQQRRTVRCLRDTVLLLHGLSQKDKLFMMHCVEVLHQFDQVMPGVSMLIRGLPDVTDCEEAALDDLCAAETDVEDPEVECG

NC(=O)NO [hydroxyurea]
cells positive for cleaved caspase-3 (U2OS cells): < 0.5%

NC(=O)Nc1cc(-c2cccc(F)c2)sc1C(=O)N[C@H]1CCCNC1 [AZD7762, reference compound]
viable cells remaining [1]: did not have a marked effect
viable cells remaining [2]: did not impact the viability
viable cells remaining [3]: did not have a marked effect
effect on viability (BJ-hTERT parental cells): did not have a marked effect
tumor size / tumor growth [4]: reduced tumor growth
survival [4]: no impact
survival [5]: minimal impact
tumor size / tumor growth [5]: minimal impact
effect on viability (HA1EB-GFP parental cells): Neither VE-821 nor AZD7762 had a marked effect

CNCc1ccc(-c2cc(-c3nc(-c4ccc(S(=O)(=O)C(C)C)cc4)cnc3N)on2)cc1 [VE-822]
tumor size / tumor growth [4]: minimal impact
survival [4]: minimal impact
survival [5]: minimal impact
tumor size / tumor growth [5]: minimal impact

CS(=O)(=O)c1ccc(-c2cnc(N)c(C(=O)Nc3ccccc3)n2)cc1 [VE-821]
viability at 1 µM (Parental DLD-1 cells): ~100%
viable cells remaining [2]: ~40%
viability at 1 µM [6]: < 3%
clonogenic survival (MCF-7 cancer cells): 10-20%
clonogenic survival (U2OS cancer cells): 10-20%
viable cells remaining [3]: ~60%
ATR activity inhibited (ATR): about 50%
effect on viability (HA1EB-GFP parental cells): Neither VE-821 nor AZD7762 had a marked effect
